Values of other authors, collected in publication PMC2699040 (European Journal of Immunology, 2007).

Legend:
[1] = test system: CTL line specific for the influenza epitope KTGGAIYKR; settings: alanine-substituted at all but a single non-MHC anchor position; ref [14]; cited from earlier work
[2] = test system: SC21 peripheral blood lymphocytes; settings: adapted IFN-γ ELISPOT, directly ex vivo; ref [18]; cited from earlier work

Row | Sequence | Recognition by CTL line [1] | HLA-A68-restricted response / antigenicity [2]
1 | ATAAAIAAR | recognise efficiently | 
2 | FHCQVCFTTKALGISYGRKK [Tat4 peptide] |  | An HLA-A68-restricted response
